“Also recorded” adds a separate entry of the source.
Assays:
[1] = overall pharmacological (anti-inflammatory and analgesic) action, tests on rats and mice; type: in vivo; details: for anti-inflammatory activity (in words): in mammals; for pharmacological action (in words): analgesic and anti-inflammatory
Method: (§1) The pharmacological tests were performed on rats and mice, using the carrageenin edema procedure on rats' legs and backs by the test for anti-inflammatory action and the acetic acid contorsion and hot plate tests on mice for the purpose of testing analgesic action.
(§2) In the anti-inflammatory action test, the test was performed on rat leg edema induced by carrageenin, administering the compounds per os and measuring the volume of the edema 3 hours later by plethysmography.
(§3) The anti-inflammatory action of these compounds was also examined by the carrageenin abscess test on rats' backs, the abscess being weighed 24 hours after administration of the product.
(§4) For the examination of analgesic action, the acetic acid and hot plate tests were used.
(§5) In the acetic acid test, the number of contorsions (stretching) is determined, which are produced for 30 minutes following intraperitoneal administration of dilute acetic acid. Analgesic action is also tested by the hot plate test in which the pain stimulus is thermal, the time being measured in seconds which the animal takes to respond to the stimulus by licking its feet.

[2] = tested on: contorsions (stretching) induced by intraperitoneal dilute acetic acid; assay: acetic acid contorsion test on mice, analgesic action; type: in vivo; design: key to Analgesic action, Acetic acid: +++: Intense action; ++: Medium action; +: Minimal action; ±: Doubtful action; -: Negative action; --: Not tested; details: for ED50: Mus musculus, ip, 0.5 h; for ED50 / Analgesic action, Acetic acid: mice, contorsions during 30 minutes after i.p. acetic acid; for analgesic action (in words): acetic acid and hot plate tests; for Analgesic action, Acetic acid: class symbol
Method: as §5, with “The pharmacological tests were performed on rats and mice, using the carrageenin edema procedure on rats' legs and backs by the test for anti-inflammatory action and the acetic acid contorsion and hot plate tests on mice for the purpose of testing analgesic action. For the examination of analgesic action, the acetic acid and hot plate tests were used. […] In” for “In”

[3] = acute toxicity (DL50 / LD50); details: mouse, in vivo
Source text: Most of the compounds described in these examples have been tested pharmacologically and toxicologically (DL50) according to the methods indicated on pages 5 to 7, and the results are summarized in the appended table.

[4] = tested on: rat leg edema induced by carrageenin; assay: carrageenin edema procedure on rats' legs (Δ volume), anti-inflammatory action; type: in vivo; design: key to Anti-inflammatory action, Δ volume: +++: Intense action; ++: Medium action; +: Minimal action; ±: Doubtful action; -: Negative action; --: Not tested; details: per os, 3 hours; for Anti-inflammatory action, Δ volume: class symbol; for ED50: po
Method: as §1, §2
(§6) The results obtained in both tests are expressed as a percentage of inhibition of the edema or abscess, and were better than 30% in comparison with a control group.

[5] = tested on: carrageenin abscess on rats' backs; assay: carrageenin abscess test on rats' backs (Δ abscess), anti-inflammatory action; type: in vivo; design: key to Anti-inflammatory action, Δ abscess: +++: Intense action; ++: Medium action; +: Minimal action; ±: Doubtful action; -: Negative action; --: Not tested; details: rat back carrageenin abscess, weighed 24 hours after administration; for Anti-inflammatory action, Δ abscess: class symbol
Method: as §1, §3, §6

[6] = tested on: thermal pain stimulus (hot plate); assay: hot plate test on mice, analgesic action; type: in vivo; design: key: +++: Intense action; ++: Medium action; +: Minimal action; ±: Doubtful action; -: Negative action; --: Not tested; details: class symbol
Method: as §1, §4, §5

SMILES	anti-inflammatory activity (in words) [1]	ED50 [2] [mg/kg]	analgesic action (in words) [2]	Analgesic action, Acetic acid [2]	LD50 [3] [mg/kg]	Anti-inflammatory action, Δ volume [4]	ED50 [4] [mg/kg]	ED50 [5] [mg/kg]	Anti-inflammatory action, Δ abscess [5]	pharmacological action (in words) [1]	anti-inflammatory activity (in words) ([1]; listed as I)	anti-inflammatory activity (in words) ([1]; listed as II)	Analgesic action, Plate [6]
CC(C(=O)O)c1csc(C(=O)c2ccccc2)c1 (stereo not shown) [A]	potent anti-inflammatory activity												
CC(C(=O)O)c1csc(C(=O)c2ccc(Cl)cc2)c1 (stereo not shown) [B]	potent anti-inflammatory activity												
CC(C(=O)O)c1csc(C(=O)c2ccccc2)c1 (stereo not shown) [LMC-I, 2-(5'-benzoyl-3'-thienyl)propionic acid]		50	have an analgesic action	+++	~400	+++	7.3	12.5	+++	notable analgesic and anti-inflammatory action; also recorded: most active compounds	anti-inflammatory activity in mammals		
CC(C(=O)O)c1csc(C(=O)c2ccc(Cl)cc2)c1 (stereo not shown) [LMC-II, 2-(5'-(4"-chloro)benzoyl-3'-thienyl)propionic acid]		69.6	have an analgesic action	+++	~1200	+++	17.3	23.5	+++	notable pharmacological action, though it is inferior to that of compound I; also recorded: most active compounds		anti-inflammatory activity in mammals	
CC(C(=O)O)c1csc(C(=O)c2ccc(Cl)cc2Cl)c1 (stereo not shown) [LMC-III, 2-(5'-(2",4"-dichloro)benzoyl-3'-thienyl)propionic acid]				+	~1000	±			+				+
Cc1ccc(C(=O)c2cc(C(C)C(=O)O)cs2)cc1 (stereo not shown) [LMC-IV]				++	~1200	+++			++	best representative of this action			++
CC(C)C(=O)c1cc(C(C)C(=O)O)cs1 (stereo not shown) [LMC-V, 2-(5'-isobutyryl-3'-thienyl)propionic acid]					~1500	++			+				+
CC(C(=O)O)c1csc(Cc2ccccc2)c1 (stereo not shown) [LMC-VII, 2-(5'-benzyl-3'-thienyl)propionic acid]					~1500	+							
CC(C)Cc1cc(C(C)C(=O)O)cs1 (stereo not shown) [LMC-VI]					> 1000	+			+				+
